# Measured values: the supplement of paper PMC10307832
# Experiments:
# Experiment in all cases: relative viability (nuclei count vs DMSO), 5 days (fraction); higher = more cells survive
# 201T = test system: 201T
# Outline: (§1)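 One day after seeding in 1536-well plates, lung cancer cell lines were dosed by pin tool. Dosing was either single-drug or a fixed anchor-drug dose plus five library-drug doses (not always all listed) in √10 steps. After 5 days, nuclei were stained in one fix-and-stain step and counted on 4× images, and relative viability is the nuclei count of treated wells over that of vehicle wells, given as the median of duplicate plates.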
# ABC-1 = test system: ABC-1
# Outline: as §1
# BEN = test system: BEN
# Outline: as §1
# CAL-12T = test system: CAL-12T
# Outline: as §1
# COR-L 105 = test system: COR-L 105
# Outline: as §1
# COR-L23 = test system: COR-L23
# Outline: as §1
# EKVX = test system: EKVX
# Outline: as §1
# HARA = test system: HARA
# Outline: as §1
# HCC-366 = test system: HCC-366
# Outline: as §1
# LK-2 = test system: LK-2
# Outline: as §1
# LU99A = test system: LU99A
# Outline: as §1
# NCI-H1437 = test system: NCI-H1437
# Outline: as §1
# NCI-H1650 = test system: NCI-H1650
# Outline: as §1
# NCI-H1666 = test system: NCI-H1666
# Outline: as §1
# NCI-H2009 = test system: NCI-H2009
# Outline: as §1
# NCI-H2023 = test system: NCI-H2023
# Outline: as §1
# NCI-H2170 = test system: NCI-H2170
# Outline: as §1
# NCI-H3122 = test system: NCI-H3122
# Outline: as §1
# NCI-H441 = test system: NCI-H441
# Outline: as §1
# NCI-H661 = test system: NCI-H661
# Outline: as §1
# NCI-H727 = test system: NCI-H727
# Outline: as §1
# NCI-H838 = test system: NCI-H838
# Outline: as §1
# PC-14 = test system: PC-14
# Outline: as §1
# SW 900 = test system: SW 900
# Outline: as §1
compound,measurement,setting,value
CC(C)Oc1cc(Nc2nc(N[C@@H](C)c3ccc(F)cn3)ncc2Cl)n[nH]1 [AZ23] + COc1cccc2cc(-c3nc([C@H]4CC[C@H](C(=O)O)CC4)n4ncnc(N)c34)[nH]c12 [OSI-027] (partner 0.5 µM),relative viability,201T; first compound 0.01 µM,0.504
same,relative viability,201T; first compound 0.03162 µM,0.827
same,relative viability,201T; first compound 0.3162 µM,0.728
same,relative viability,ABC-1; first compound 0.01 µM,0.398
same,relative viability,ABC-1; first compound 0.03162 µM,0.408
same,relative viability,ABC-1; first compound 0.3162 µM,0.469
same,relative viability,BEN; first compound 0.01 µM,0.312
same,relative viability,BEN; first compound 0.03162 µM,0.287
same,relative viability,BEN; first compound 0.3162 µM,0.268
same,relative viability,CAL-12T; first compound 0.03162 µM,0.593
same,relative viability,CAL-12T; first compound 0.3162 µM,0.778
same,relative viability,COR-L 105; first compound 0.01 µM,0.657
same,relative viability,COR-L 105; first compound 0.03162 µM,0.849
same,relative viability,COR-L 105; first compound 0.3162 µM,0.809
same,relative viability,COR-L23; first compound 0.01 µM,0.758
same,relative viability,COR-L23; first compound 0.03162 µM,0.868
same,relative viability,COR-L23; first compound 0.3162 µM,0.822
same,relative viability,EKVX; first compound 0.01 µM,0.801
same,relative viability,EKVX; first compound 0.03162 µM,0.636
same,relative viability,EKVX; first compound 0.3162 µM,0.66
same,relative viability,HARA; first compound 0.03162 µM,0.686
same,relative viability,HARA; first compound 0.3162 µM,0.415
same,relative viability,HCC-366; first compound 0.01 µM,1.06
same,relative viability,HCC-366; first compound 0.03162 µM,0.872
same,relative viability,HCC-366; first compound 0.3162 µM,1.05
same,relative viability,LK-2; first compound 0.01 µM,0.176
same,relative viability,LK-2; first compound 0.03162 µM,0.198
same,relative viability,LK-2; first compound 0.3162 µM,0.183
same,relative viability,LU99A; first compound 0.01 µM,0.264
same,relative viability,LU99A; first compound 0.03162 µM,0.312
same,relative viability,LU99A; first compound 0.3162 µM,0.286
same,relative viability,NCI-H1437; first compound 0.01 µM,0.878
same,relative viability,NCI-H1437; first compound 0.03162 µM,1.01
same,relative viability,NCI-H1437; first compound 0.3162 µM,1.05
same,relative viability,NCI-H1650; first compound 0.03162 µM,0.689
same,relative viability,NCI-H1650; first compound 0.3162 µM,0.713
same,relative viability,NCI-H1666; first compound 0.01 µM,0.847
same,relative viability,NCI-H1666; first compound 0.03162 µM,0.849
same,relative viability,NCI-H1666; first compound 0.3162 µM,0.823
same,relative viability,NCI-H2009; first compound 0.01 µM,0.651
same,relative viability,NCI-H2009; first compound 0.03162 µM,0.706
same,relative viability,NCI-H2009; first compound 0.3162 µM,0.765
same,relative viability,NCI-H2023; first compound 0.03162 µM,0.373
same,relative viability,NCI-H2023; first compound 0.3162 µM,0.437
same,relative viability,NCI-H2170; first compound 0.01 µM,0.664
same,relative viability,NCI-H2170; first compound 0.03162 µM,0.722
same,relative viability,NCI-H2170; first compound 0.3162 µM,0.726
same,relative viability,NCI-H3122; first compound 0.01 µM,1.12
same,relative viability,NCI-H3122; first compound 0.03162 µM,1.12
same,relative viability,NCI-H3122; first compound 0.3162 µM,1.12
same,relative viability,NCI-H441; first compound 0.01 µM,0.707
same,relative viability,NCI-H441; first compound 0.03162 µM,0.729
same,relative viability,NCI-H441; first compound 0.3162 µM,0.566
same,relative viability,NCI-H661; first compound 0.01 µM,0.666
same,relative viability,NCI-H661; first compound 0.03162 µM,0.766
same,relative viability,NCI-H661; first compound 0.3162 µM,0.755
same,relative viability,NCI-H727; first compound 0.01 µM,0.496
same,relative viability,NCI-H727; first compound 0.03162 µM,0.558
same,relative viability,NCI-H727; first compound 0.3162 µM,0.605
same,relative viability,NCI-H838; first compound 0.01 µM,0.437
same,relative viability,NCI-H838; first compound 0.03162 µM,0.402
same,relative viability,NCI-H838; first compound 0.3162 µM,0.424
same,relative viability,PC-14; first compound 0.03162 µM,1.01
same,relative viability,PC-14; first compound 0.3162 µM,1.24
same,relative viability,SW 900; first compound 0.01 µM,0.512
same,relative viability,SW 900; first compound 0.03162 µM,0.663
same,relative viability,SW 900; first compound 0.3162 µM,0.579
